Data set [1] relates to MCF7. The data set can be described thus: Induction of apoptosis in human MCF7 cells assessed as apoptotic cells at 10 uM measured after 72 hrs by propidium iodide staining-based flow cytometric analysis (reference value: 5.5 +/- 1.3%). The format is functional. A general note: Flow cytometry measures light scatter and fluorescence of single cells or particles in a stream.

Data set [2] has as its system MCF7. The data set can be described thus: Induction of apoptosis in human MCF7 cells assessed as accumulation at G2/M-phase at 10 uM measured after 72 hrs by propidium iodide staining-based flow cytometric analysis. The format is functional, cell-based.
Data set [3] deals with PBMC. The data set can be described thus: Induction of apoptosis in human PBMCs assessed as apoptotic cells at 10 uM measured after 72 hrs by propidium iodide staining-based flow cytometric analysis (reference value: 1.5 +/- 0.6%). It is filed as cell-based.
The test system of data set [4] is PBMC. The data set can be described thus: Induction of apoptosis in human PBMCs assessed as accumulation at G2/M-phase at 10 uM measured after 72 hrs by propidium iodide staining-based flow cytometric analysis. It is filed as cell-based.
The target of a further data set is T1, Estrogen receptor (Homo sapiens, UniProt P03372).
T1 sequence (P03372 whole entry): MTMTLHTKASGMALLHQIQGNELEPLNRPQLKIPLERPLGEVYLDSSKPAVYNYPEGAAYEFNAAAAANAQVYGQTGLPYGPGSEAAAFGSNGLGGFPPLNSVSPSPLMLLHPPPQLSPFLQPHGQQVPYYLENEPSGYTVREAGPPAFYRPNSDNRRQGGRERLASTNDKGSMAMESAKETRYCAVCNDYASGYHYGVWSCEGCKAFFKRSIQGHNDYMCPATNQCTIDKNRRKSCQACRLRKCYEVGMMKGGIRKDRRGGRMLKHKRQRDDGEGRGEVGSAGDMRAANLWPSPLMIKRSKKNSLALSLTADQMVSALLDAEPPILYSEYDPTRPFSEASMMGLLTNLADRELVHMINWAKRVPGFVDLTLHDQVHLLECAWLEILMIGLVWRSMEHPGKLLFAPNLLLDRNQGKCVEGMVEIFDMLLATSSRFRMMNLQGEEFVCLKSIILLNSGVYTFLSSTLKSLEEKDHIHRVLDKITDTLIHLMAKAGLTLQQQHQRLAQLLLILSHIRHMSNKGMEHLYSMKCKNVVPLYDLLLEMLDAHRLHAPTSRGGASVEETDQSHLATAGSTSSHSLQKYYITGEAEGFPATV

The next data set deals with Estrogen receptor beta (Homo sapiens, UniProt Q92731).
Sequence of Estrogen receptor beta (Q92731 whole entry): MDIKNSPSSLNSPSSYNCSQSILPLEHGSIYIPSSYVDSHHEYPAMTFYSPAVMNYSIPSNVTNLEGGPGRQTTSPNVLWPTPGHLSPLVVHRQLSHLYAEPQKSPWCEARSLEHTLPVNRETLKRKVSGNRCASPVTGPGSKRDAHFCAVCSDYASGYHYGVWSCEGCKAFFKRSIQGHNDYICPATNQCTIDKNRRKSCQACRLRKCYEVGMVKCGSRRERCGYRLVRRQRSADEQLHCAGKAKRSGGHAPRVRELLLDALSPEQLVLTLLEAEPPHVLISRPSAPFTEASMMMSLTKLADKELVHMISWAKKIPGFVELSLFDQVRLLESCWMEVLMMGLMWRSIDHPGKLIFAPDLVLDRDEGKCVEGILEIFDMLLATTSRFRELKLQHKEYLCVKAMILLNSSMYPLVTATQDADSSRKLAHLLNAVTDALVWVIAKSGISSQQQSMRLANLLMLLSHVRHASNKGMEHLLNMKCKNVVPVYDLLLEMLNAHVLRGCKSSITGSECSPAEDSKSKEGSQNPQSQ
Data set [5] concerns MCF7. The data set can be described thus: cells. The following applies: Homo sapiens, MCF7, 72 h.
Description: Antiproliferative activity against ER-positive human MCF7 cells assessed as reduction in cell viability measured after 72 hrs by AlamarBlue assay

Activity calls are given as the source filed them. The calls are words filed in the database; no cut-off is given here.

Description for Estrogen receptor beta: Inhibition of ER-beta (unknown origin) by Lanthascreen-FRET assay

With `Cc1c(-c2ccc(O)cc2)n(CCCCn2c(-c3ccc(O)cc3)c(C)c3cc(O)ccc32)c2ccc(O)cc12`, the Activity is 54.7% with MCF7 [1], 16.7% in the data set on PBMC [3] and “Non-toxic” in the data set on PBMC [4]. In addition, the result in the data set with MCF7 [2] was inactive. Also, the IC50 – broadly, the midpoint of a concentration-inhibition curve – is 0.436 µM at Estrogen receptor, 0.041 µM on Estrogen receptor beta and 2.75 µM in the data set with MCF7 [5].

For the compound `COc1ccc(/C=C(/C(=O)N(C)CCCCn2c(-c3ccc(O)cc3)c(C)c3cc(O)ccc32)c2cc(OC)c(OC)c(OC)c2)cc1O`, it took 1.99 µM to reach half-maximal inhibition in the data set with MCF7 [5] (IC50).

As for `CNCCCCn1c(-c2ccc(O)cc2)c(C)c2cc(O)ccc21`, 40.7 µM corresponded to half-maximal inhibition in the data set with MCF7 [5] (IC50). Compared with the last compound, the IC50 is about 20-fold higher.

For the compound `Cc1c(-c2ccc(O)cc2)n(CCCCCCCCCCCCn2c(-c3ccc(O)cc3)c(C)c3cc(O)ccc32)c2ccc(O)cc12`, in the data set with MCF7 [5], the IC50 came out at 5.24 µM. Against the preceding compound, the IC50 is about 7.8-fold lower.

Take `CNCCCCCn1c(-c2ccc(O)cc2)c(C)c2cc(O)ccc21`: in the data set on MCF7 [5], the IC50 was 49 µM. This IC50 lies about 9.4-fold higher than the previous one.

`COc1ccc(-c2c(C)c3cc(OC)ccc3n2CCCCN(C)C(=O)/C(=C/c2ccc(OC)c(O)c2)c2cc(OC)c(OC)c(OC)c2)cc1` returned an IC50 in the data set on MCF7 [5] of 81.3 µM.

As for `Cc1c(-c2ccc(O)cc2)n(CCCCCCCCn2c(-c3ccc(O)cc3)c(C)c3cc(O)ccc32)c2ccc(O)cc12`, the half-inhibitory concentration (IC50) with MCF7 [5] turned out to be 6.6 µM.

As to `Cc1c(-c2ccc(O)cc2)n(Cc2ccc(O)cc2)c2ccc(O)cc12`, in the data set on MCF7 [5], the half-inhibitory concentration (IC50) is 38.9 µM.

In the data set on MCF7 [5], `COc1ccc(/C=C(/C(=O)N(C)CCCCCCCCn2c(-c3ccc(O)cc3)c(C)c3cc(O)ccc32)c2cc(OC)c(OC)c(OC)c2)cc1O` returned an IC50 of 2.95 µM.

Take `Cc1c(-c2ccc(O)cc2)n(CCCCCn2c(-c3ccc(O)cc3)c(C)c3cc(O)ccc32)c2ccc(O)cc12`: in the data set on MCF7 [5], 4.16 µM corresponded to half-maximal inhibition (IC50).

As for `Cc1c(-c2ccc(O)cc2)n(Cc2ccc(F)cc2)c2ccc(O)cc12`, in the data set on MCF7 [5], the IC50 is 41 µM. This IC50 is about 9.9-fold higher than that of the compound before.

In the data set with MCF7 [5], `CCCCn1c(-c2ccc(O)cc2)c(C)c2cc(O)ccc21` gave an IC50 of 34 µM. This IC50 and that of the compound before are within 1.5-fold of each other.

In the case of `Cc1c(-c2ccc(O)cc2)n(CCCCCCn2c(-c3ccc(O)cc3)c(C)c3cc(O)ccc32)c2ccc(O)cc12`, in the data set with MCF7 [5], the IC50 was determined as 8.16 µM. Compared with the last compound, the IC50 is about 4.2-fold lower.

`COc1ccc(/C=C(/C(=O)N(C)CCCCCCCCCCCCn2c(-c3ccc(O)cc3)c(C)c3cc(O)ccc32)c2cc(OC)c(OC)c(OC)c2)cc1O`: the Activity in the data set with MCF7 [1] is listed as 42.1%; with PBMC [3] it was “Non-toxic”; with PBMC [4], “Non-toxic”. Moreover, the outcome in the data set with MCF7 [2] was inactive. Besides, the IC50 on Estrogen receptor came to 0.574 µM; against Estrogen receptor beta, 0.155 µM; in the data set on MCF7 [5] it was 1.86 µM.

In turn, `COc1cc(Cn2c(-c3ccc(O)cc3)c(C)c3cc(O)ccc32)cc(OC)c1OC` registered an IC50 in the data set on MCF7 [5] of 332 µM.

Consider `CNCCCCCCCCn1c(-c2ccc(O)cc2)c(C)c2cc(O)ccc21`, for which, in the data set with MCF7 [5], 38.9 µM corresponded to half-maximal inhibition (IC50).

Take `Cc1c(-c2ccc(O)cc2)n(Cc2ccc(Cn3c(-c4ccc(O)cc4)c(C)c4cc(O)ccc43)cc2)c2ccc(O)cc12`: half-maximal inhibition in the data set with MCF7 [5] (IC50) was put at 3.5 µM.

As for `COc1ccc(/C=C(/C(=O)N(C)CCCCCn2c(-c3ccc(O)cc3)c(C)c3cc(O)ccc32)c2cc(OC)c(OC)c(OC)c2)cc1O`, the IC50 in the data set with MCF7 [5] is 2.93 µM. This IC50 and that of the compound before are within 1.5-fold of each other.

`CNCCCCCCCCCCCCn1c(-c2ccc(O)cc2)c(C)c2cc(O)ccc21`: the Activity is 7.5% in the data set on MCF7 [1], “Non-toxic” in the data set on PBMC [3] and “Non-toxic” in the data set with PBMC [4]. For the same compound, in the data set with MCF7 [2], the result was inactive. Also, the IC50 worked out at 0.38 µM at Estrogen receptor, 1.66 µM on Estrogen receptor beta and 33 µM in the data set with MCF7 [5].

For the compound `CNCCCCCCn1c(-c2ccc(O)cc2)c(C)c2cc(O)ccc21`, the midpoint of inhibition in the data set with MCF7 [5], the IC50, lay at 41.7 µM.

Turning to `Cc1c(-c2ccc(O)cc2)n(CCO)c2ccc(O)cc12`, half-maximal inhibition in the data set on MCF7 [5] (IC50) was put at 17.7 µM.

`COc1ccc(/C=C(/C(=O)N(C)CCCCCCn2c(-c3ccc(O)cc3)c(C)c3cc(O)ccc32)c2cc(OC)c(OC)c(OC)c2)cc1O`: the IC50 in the data set with MCF7 [5] came out at 2.34 µM. This IC50 is about 7.6-fold lower than that of the compound before.

For the origin of these results see ChEMBL document CHEMBL3822435, “Synthesis, antiproliferative and pro-apoptotic activity of 2-phenylindoles” (Bioorg Med Chem, 2016).
